Assay results as given in patent US12466800B2, “N-((1,2,3,5,6,7-hexahydro-S-indacen-4-yl)carbamoyl)-4, 5, 6, 7-tetrahydrobenzofuran-2-sulfonamide derivatives and related compounds as NLPR3 modulators for the treatment of multiple sclerosis (MS)” (Zomagen Biosciences Ltd, priority 2019, dated 2025).

tested on: IL-1b; assay: Mouse BMDM IL-1b Assay; type: cell-based; settings: Macrophage; mouse bone marrow derived macrophages (C57BL6); 200 ng/mL LPS 3 h, compound 30 min, 5 mM ATP 45 min; IL-1b ELISA of supernatant
Experimental: Example 20: Mouse BMDM IL-1b Assay
Mouse bone marrow cells from C57BL6 tibia and femur were culture in complete Isocov's Media supplemented with 20 ng/mL MCSF (BMDM media) at a density of 50 million cells/15 cm Petri dish. Fresh media was changed every 3 days, and bone marrow derived macrophages were collected, washed, and counted on day 7. Cells were seeded into 96 well plates at a density of 5×10^4 cells per well in 100 uL of BMDM media and cultured overnight. The cells were stimulated at 37° C. with 200 ng/mL Ultrapure LPS-B5 for 3 hours before pre-diluted compounds were added. 30 minutes after compound addition, 5 mM ATP was added for the secondary stimulation for 45 minutes. After stimulation, the plates were briefly spun down, and 50 uL of supernatant was harvested from each well. ELISA for mouse IL-1b was performed with 1:10 and 1:100 diluted supernatant using pre-coated kits. IL-1b concentrations were calculated based on pre-titrated standards, and compound inhibition IC50 is generated using the Levenberg Marquardt damped lease-square method.

CC1(O)CCCCc2oc(S(=O)(=O)NC(=O)Nc3c4c(c(Cl)c5c3CCC5)CCC4)cc21 (stereo not drawn) [Compound 107, N-((8-chloro-1,2,3,5,6,7-hexahydro-s-indacen-4-yl)carbamoyl)-4-hydroxy-4-methyl-5,6,7,8-tetrahydro-4H-cyclohepta[b]furan-2-sulfonamide] and O=C(Nc1c2c(c(Cl)c3c1CCC3)CCC2)NS(=O)(=O)c1cc2c(o1)CCCC2O (stereo not drawn) [Compound 43, N-((8-chloro-1,2,3,5,6,7-hexahydro-s-indacen-4-yl)carbamoyl)-4-hydroxy-4,5,6,7-tetrahydrobenzofuran-2-sulfonamide] cannot be ordered by IC50: under 0.1 µM for the first, under 0.1 µM for the second.

Cc1c(S(=O)(=O)NC(=O)Nc2c3c(cc4c2CCC4)CCC3)oc2c1C(O)CCC2 (stereo not drawn) [Compound 92, N-((1,2,3,5,6,7-hexahydro-s-indacen-4-yl)carbamoyl)-4-hydroxy-3-methyl-4,5,6,7-tetrahydrobenzofuran-2-sulfonamide] and O=C(Nc1c2c(cc3c1CCC3)CCC2)NS(=O)(=O)c1cc2c(o1)CCCCC2O (stereo not drawn) [Compound 25, N-((1,2,3,5,6,7-hexahydro-s-indacen-4-yl)carbamoyl)-4-hydroxy-5,6,7,8-tetrahydro-4H-cyclohepta[b]furan-2-sulfonamide] cannot be ordered by IC50: under 0.1 µM for the first, under 0.1 µM for the second.

CC1(O)CCCc2oc(S(=O)(=O)NC(=O)Nc3c4c(cc5c3CCC5)CCC4)cc21 (stereo not drawn) [Compound 5, N-((1,2,3,5,6,7-hexahydro-s-indacen-4-yl)carbamoyl)-4-hydroxy-4-methyl-4,5,6,7-tetrahydrobenzofuran-2-sulfonamide] and CCC1(O)CCCc2oc(S(=O)(=O)NC(=O)Nc3c4c(cc5c3CCC5)CCC4)cc21 (stereo not drawn) [Compound 45, 4-ethyl-N-((1,2,3,5,6,7-hexahydro-s-indacen-4-yl)carbamoyl)-4-hydroxy-4,5,6,7-tetrahydrobenzofuran-2-sulfonamide] cannot be ordered by IC50: under 0.1 µM for the first, under 0.1 µM for the second.

First: O=C(Nc1c2c(cc3c1CCC3)CCC2)NS(=O)(=O)c1cc2c(o1)CCC/C2=N\O [Compound 35, (E)-N-((1,2,3,5,6,7-hexahydro-s-indacen-4-yl)carbamoyl)-4-(hydroxyimino)-4,5,6,7-tetrahydrobenzofuran-2-sulfonamide]
Second: CC1(C)CC(=NO)c2cc(S(=O)(=O)NC(=O)Nc3c4c(cc5c3CCC5)CCC4)oc2C1 [Compound 49, N-((1,2,3,5,6,7-hexahydro-s-indacen-4-yl)carbamoyl)-4-(hydroxyimino)-6,6-dimethyl-4,5,6,7-tetrahydrobenzofuran-2-sulfonamide]
The IC50 of the first is lower: under 0.1 µM for the first, 0.1 to 1 µM for the second. The first is the more potent here.

CC1CC(=O)c2cc(S(=O)(=O)NC(=O)Nc3c4c(cc5c3CCC5)CCC4)oc2C1 (stereo not drawn) [Compound 17, N-((1,2,3,5,6,7-hexahydro-s-indacen-4-yl)carbamoyl)-6-methyl-4-oxo-4,5,6,7-tetrahydrobenzofuran-2-sulfonamide] and O=C(Nc1c2c(cc3c1CCC3)CCC2)NS(=O)(=O)c1cc2c(o1)CCCNC2=O [Compound 38, N-((1,2,3,5,6,7-hexahydro-s-indacen-4-yl)carbamoyl)-4-oxo-5,6,7,8-tetrahydro-4H-furo[3,2-c]azepine-2-sulfonamide] fall in the same range of IC50: 0.1 to 1 µM for the first, 0.1 to 1 µM for the second.

First: CN1CCc2sc(S(=O)(=O)NC(=O)Nc3c4c(cc5c3CCC5)CCC4)cc2C1 [Compound 113, N-((1,2,3,5,6,7-hexahydro-s-indacen-4-yl)carbamoyl)-5-methyl-4,5,6,7-tetrahydrothieno[3,2-c]pyridine-2-sulfonamide]
Second: CN1CCc2sc(S(=O)(=O)NC(=O)Nc3c4c(cc5c3CCC5)CCC4)cc2C1=O [Compound 114, N-((1,2,3,5,6,7-hexahydro-s-indacen-4-yl)carbamoyl)-5-methyl-4-oxo-4,5,6,7-tetrahydrothieno[3,2-c]pyridine-2-sulfonamide]
The IC50 of the first is lower: under 0.1 µM for the first, 0.1 to 1 µM for the second.

CC(C)c1ccc(F)c(C(C)C)c1NC(=O)NS(=O)(=O)c1cc2c(o1)CCC/C2=N/O [Compound 97, (Z)-N-((3-fluoro-2,6-diisopropylphenyl)carbamoyl)-4-(hydroxyimino)-4,5,6,7-tetrahydrobenzofuran-2-sulfonamide] and CC(C)c1ccc(F)c(C(C)C)c1NC(=O)NS(=O)(=O)c1cc2c(o1)CCC/C2=N\O [Compound 98, (E)-N-((3-fluoro-2,6-diisopropylphenyl)carbamoyl)-4-(hydroxyimino)-4,5,6,7-tetrahydrobenzofuran-2-sulfonamide] fall in the same range of IC50: 0.1 to 1 µM for the first, 0.1 to 1 µM for the second.

First: O=C(Nc1c2c(c(Br)c3c1CCC3)CCC2)NS(=O)(=O)c1cc2c(o1)CCC/C2=N/O [Compound 82, (Z)-N-((8-bromo-1,2,3,4,5,6,7-hexahydro-s-indacen-4-yl)carbamoyl)-4-(hydroxyimino)-4,5,6,7-tetrahydrobenzofuran-2-sulfonamide]
Second: O=C(Nc1c2c(c(C(F)(F)F)c3c1CCC3)CCC2)NS(=O)(=O)c1cc2c(o1)CCCC2O (stereo not drawn) [Compound 55, 4-hydroxy-N-((8-(trifluoromethyl)-1,2,3,5,6,7-hexahydro-s-indacen-4-yl)carbamoyl)-4,5,6,7-tetrahydrobenzofuran-2-sulfonamide]
The IC50 of the first is higher: 0.1 to 1 µM for the first, under 0.1 µM for the second.

CC1(C)CCC(C)(O)c2cc(S(=O)(=O)NC(=O)Nc3c4c(cc5c3CCC5)CCC4)oc21 (stereo not drawn) [Compound 12, N-((1,2,3,5,6,7-hexahydro-s-indacen-4-yl)carbamoyl)-4-hydroxy-4,7,7-trimethyl-4,5,6,7-tetrahydrobenzofuran-2-sulfonamide] and CC1(C)CCc2oc(S(=O)(=O)NC(=O)Nc3c4c(cc5c3CCC5)CCC4)cc2C1(C)O (stereo not drawn) [Compound 11, N-((1,2,3,5,6,7-hexahydro-s-indacen-4-yl)carbamoyl)-4-hydroxy-4,5,5-trimethyl-4,5,6,7-tetrahydrobenzofuran-2-sulfonamide] cannot be ordered by IC50: under 0.1 µM for the first, under 0.1 µM for the second.

CC(C)c1ccc(Cl)c(C(C)C)c1NC(=O)NS(=O)(=O)c1cc2c(o1)CCCCC2(C)O (stereo not drawn) [Compound 111, N-((3-chloro-2,6-diisopropylphenyl)carbamoyl)-4-hydroxy-4-methyl-5,6,7,8-tetrahydro-4H-cyclohepta[b]furan-2-sulfonamide] and CC(C)c1ccc(Cl)c(C(C)C)c1NC(=O)NS(=O)(=O)c1cc2c(o1)CCCC2(C)O (stereo not drawn) [Compound 66, N-((3-chloro-2,6-diisopropylphenyl)carbamoyl)-4-hydroxy-4-methyl-4,5,6,7-tetrahydrobenzofuran-2-sulfonamide] fall in the same range of IC50: 0.1 to 1 µM for the first, 0.1 to 1 µM for the second.

CC(C)c1cc(F)cc(C(C)C)c1NC(=O)NS(=O)(=O)c1cc2c(o1)CCCC2O (stereo not drawn) [Compound 63, N-((4-fluoro-2,6-diisopropylphenyl)carbamoyl)-4-hydroxy-4,5,6,7-tetrahydrobenzofuran-2-sulfonamide] and CC(C)c1cc(Cl)cc(C(C)C)c1NC(=O)NS(=O)(=O)c1cc2c(o1)CCCC2O (stereo not drawn) [Compound 61, N-((4-chloro-2,6-diisopropylphenyl)carbamoyl)-4-hydroxy-4,5,6,7-tetrahydrobenzofuran-2-sulfonamide] fall in the same range of IC50: 0.1 to 1 µM for the first, 0.1 to 1 µM for the second.

First: O=C(O)CC1(O)CCCc2oc(S(=O)(=O)NC(=O)Nc3c4c(cc5c3CCC5)CCC4)cc21 (stereo not drawn) [Compound 104, 2-(2-(N-((1,2,3,5,6,7-hexahydro-s-indacen-4-yl)carbamoyl)sulfamoyl)-4-hydroxy-4,5,6,7-tetrahydrobenzofuran-4-yl)acetic acid]
Second: CC1Cc2oc(S(=O)(=O)NC(=O)Nc3c4c(cc5c3CCC5)CCC4)cc2C(C)(O)C1 (stereo not drawn) [Compound 16, N-((1,2,3,5,6,7-hexahydro-s-indacen-4-yl)carbamoyl)-4-hydroxy-4,6-dimethyl-4,5,6,7-tetrahydrobenzofuran-2-sulfonamide]
The IC50 of the first is higher: 1 to 10 µM for the first, under 0.1 µM for the second. The second is the more potent here.

Compared with CN1CCCc2oc(S(=O)(=O)NC(=O)Nc3c4c(cc5c3CCC5)CCC4)cc2C1 [Compound 87, N-((1,2,3,5,6,7-hexahydro-s-indacen-4-yl)carbamoyl)-5-methyl-5,6,7,8-tetrahydro-4H-furo[3,2-c]azepine-2-sulfonamide], CC(C)N1CCCc2oc(S(=O)(=O)NC(=O)Nc3c4c(cc5c3CCC5)CCC4)cc2C1=O [Compound 84, N-((1,2,3,5,6,7-hexahydro-s-indacen-4-yl)carbamoyl)-5-isopropyl-4-oxo-5,6,7,8-tetrahydro-4H-furo[3,2-c]azepine-2-sulfonamide] is higher in IC50: under 0.1 µM for the first, 1 to 10 µM for the second. The first is the more potent here.

First: O=C(Nc1c2c(cc3c1CCC3)CCC2)NS(=O)(=O)c1cc2c(o1)CCCc1c[nH]nc1-2 [Compound 33, N-((1,2,3,5,6,7-hexahydro-s-indacen-4-yl)carbamoyl)-2,4,5,6-tetrahydrofuro[2′,3′:6,7]cyclohepta[1,2-c]pyrazole-8-sulfonamide]
Second: CC(C)c1cc(Cl)cc(C(C)C)c1NC(=O)NS(=O)(=O)c1cc2c(o1)CCC/C2=N\O [Compound 78, (E)-N-((4-chloro-2,6-diisopropylphenyl)carbamoyl)-4-(hydroxyimino)-4,5,6,7-tetrahydrobenzofuran-2-sulfonamide]
The IC50 of the first is lower: 0.1 to 1 µM for the first, 1 to 10 µM for the second.

First: CC(C)c1cccc(C(C)C)c1NC(=O)NS(=O)(=O)c1cc2c(o1)CCC/C2=N\O [Compound 81, (E)-N-((2,6-diisopropylphenyl)carbamoyl)-4-(hydroxyimino)-4,5,6,7-tetrahydrobenzofuran-2-sulfonamide]
Second: CC(C)c1c(F)c(Cl)c(F)c(C(C)C)c1NC(=O)NS(=O)(=O)c1cc2c(o1)CCCC2(C)O (stereo not drawn) [Compound 103, N-((4-chloro-3,5-difluoro-2,6-diisopropylphenyl)carbamoyl)-4-hydroxy-4-methyl-4,5,6,7-tetrahydrobenzofuran-2-sulfonamide]
The IC50 of the first is higher: 1 to 10 µM for the first, 0.1 to 1 µM for the second. The second is the more potent here.
